Data taken from US7820669B2 (NYCOMED GmbH, priority 2004, dated 2010).

What was measured:
[1] = target: T1, PDE4B2 (Homo sapiens, UniProt Q07343); assay: Inhibition of PDE4B2 activity, modified [3H]cAMP SPA (scintillation proximity assay) test; assay type: biochemical; details: recombinant PDE4B2 expressed in SF21 insect cells; 0.5 μM cAMP; 15 min at 37° C.; read-out: PDE4 Inhibition [measured as -logIC50 (mol/l)] (converted)
T1 construct: made in house; host or cells: SF21 insect cells (baculovirus generated in SF9 cells, pCR-Bac vector)
Experimental: PDE4B2 (GB no. M97515) was a gift of Prof. M. Conti (Stanford University, USA). It was amplified from the original plasmid (pCMV5) via PCR with primers Rb9 (5′-[…]-3′) and Rb10 (5′-[…]-3′) and cloned into the pCR-Bac vector (Invitrogen, Groningen, NL).
The recombinant baculovirus was prepared by means of homologous recombination in SF9 insect cells. The expression plasmids were cotransfected with Bac-N-Blue (Invitrogen, Groningen, NL) or Baculo-Gold DNA (Pharmingen, Hamburg) using a standard protocol (Pharmingen, Hamburg). Wt vrus-free recombinant virus supernatants were selected using plaque assay methods. After that, high-titre virus supernatants were, prepared by amplifying 3 times. PDE4B2 was expressed in SF21 cells by infecting 2×10^6 cells/ml with an MOI (multiplicity of infection) between 1 and 10 in serum-free SF900 medium (Life Technologies, Paisley, UK). The cells were cultured at 28° C. for 48-72 hours, after which they were pelleted for 5-10 min at 1000 g and 4° C.
The SF21 insect cells were resuspended, at a concentration of approx. 10^7 cells/ml, in ice-cold (4° C.) homogenization buffer (20 mM Tris, pH 8.2, containing the following additions: 140 mM NaCl, 3.8 mM KCl, 1 mM EGTA, 1 mM MgCl2, 10 mM β-mercaptoethanol, 2 mM benzamidine, 0.4 mM Pefablock, 10 μM leupeptin, 10 μM pepstatin A, 5 μM trypsin inhibitor) and disrupted by ultrasonication. The homogenate was then centrifuged for 10 min at 1000×g and the supernatant was stored at −80° C. until sub-sequent use (see below). The protein content was determined by the Bradford method (BioRad, Munich) using BSA as the standard.
PDE4B2 activity was inhibited by the compounds according to the invention in a modified SPA (scintillation proximity assay) test, supplied by Amersham Biosciences (see procedural instructions “phosphodiesterase [3H]cAMP SPA enzyme assay, code TRKQ 7090”), carried out in 96-well microtitre plates (MTP's). The test volume is 100 μl and contains 20 mM Tris buffer (pH 7.4), 0.1 mg of BSA (bovine serum albumin)/ml, 5 mM Mg^2+, 0.5 μM cAMP (including about 50,000 cpm of [3H]cAMP), 1 μl of the respective substance dilution in DMSO and sufficient recombinant PDE (1000×g supernatant, see above) to ensure that 10-20% of the cAMP is converted under the said experimental conditions. […] After a preincubation of 5 min at 37° C., the reaction is started by adding the substrate (cAMP) and the assays are incubated for a further 15 min; after that, they are stopped by adding SPA beads (50 μl). In accordance with the manufacturer's instructions, the SPA beads had previously been resuspended in water, but were then diluted 1:3 (v/v) in water; the diluted solution also contains 3 mM IBMX to ensure a complete PDE activity stop. After the beads have been sedimented (>30 min), the MTP's are analyzed in commercially available luminescence detection devices. The corresponding IC50 values of the compounds for the inhibition of PDE4B2 activity are determined from the concentration-effect curves by means of non-linear regression.

T1 sequence (Q07343 1-564 isoform Q07343-2): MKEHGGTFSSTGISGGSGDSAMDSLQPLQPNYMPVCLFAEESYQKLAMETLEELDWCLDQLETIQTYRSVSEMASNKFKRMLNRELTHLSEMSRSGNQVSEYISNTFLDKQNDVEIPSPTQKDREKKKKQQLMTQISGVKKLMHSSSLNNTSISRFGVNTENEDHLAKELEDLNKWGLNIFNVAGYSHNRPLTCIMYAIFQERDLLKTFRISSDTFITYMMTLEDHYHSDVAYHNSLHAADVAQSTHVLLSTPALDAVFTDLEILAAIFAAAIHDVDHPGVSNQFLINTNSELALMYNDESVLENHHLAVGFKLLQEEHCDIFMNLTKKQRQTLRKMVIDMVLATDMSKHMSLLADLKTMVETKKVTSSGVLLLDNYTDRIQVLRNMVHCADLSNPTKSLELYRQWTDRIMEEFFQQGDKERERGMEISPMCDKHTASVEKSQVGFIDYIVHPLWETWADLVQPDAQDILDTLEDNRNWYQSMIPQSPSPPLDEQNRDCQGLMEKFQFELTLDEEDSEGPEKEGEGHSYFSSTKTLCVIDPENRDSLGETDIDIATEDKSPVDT

## COc1ccc(C2=NN(C3CCN(S(=O)(=O)c4ccccc4C#N)CC3)C(=O)C(C)(C)C2)cc1OC [Compound 1]
[1]
  IC50: 295 pM
other
  melting point: 190 to 192 °C

## COc1ccc(C2=NN(C3CCN(CCC(=O)N4CCOCC4)CC3)C(=O)C(C)(C)C2)cc1OC.Cl [Compound 2, 6-(3,4-Dimethoxy-phenyl)-4,4-dimethyl-2-[1-(3-morpholin-4-yl-3-oxo-propyl)piperidin-4-yl]-4,5-dihydro-2H-pyridazin-3-one Hydrochloride]
[1]
  IC50: 25100 pM
other
  melting point: 211 to 213 °C

## COc1ccc(C2=NN(C3CCN(CC(N)=O)CC3)C(=O)C(C)(C)C2)cc1OC [Compound 3]
[1]
  IC50: 1860 pM

## COc1ccc(C2=NN(C3CCN(C(=O)CN4C(=O)CCC4=O)CC3)C(=O)C(C)(C)C2)cc1OC [Compound 4, 1-(2-{4-[3-(3,4-Dimethoxy-phenyl)-5,5-dimethyl-6-oxo-5,6-dihydro-4H-pyridazin-1-yl]-piperidin-1-yl}-2-oxo-ethyl)-pyrrolidine-2,5-dione]
[1]
  IC50: 1290 pM
other
  melting point: 177 to 179 °C

## COc1ccc(C2=NN(C3CCN(S(=O)(=O)c4ccccc4C)CC3)C(=O)C(C)(C)C2)cc1OC [Compound 5, 6-(3,4-Dimethoxy-phenyl)-4,4-dimethyl-2-[1-(toluene-2-sulfonyl)-piperidin-4-yl]-4,5-dihydro-2H-pyridazin-3-one]
[1]
  IC50: 741 pM
other
  melting point: 132 to 133 °C

## COc1ccc(C2=NN(C3CCN(S(=O)(=O)c4ccc(C#N)cc4)CC3)C(=O)C(C)(C)C2)cc1OC [Compound 6, 4-{4-[3-(3,4-Dimethoxy-phenyl)-5,5-dimethyl-6-oxo-5,6-dihydro-4H-pyridazin-1-yl]-piperidine-1-sulfonyl}-benzonitrile]
other
  melting point: 161 to 163 °C

## COc1ccc(C2=NN(C3CCN(S(=O)(=O)c4ccccc4OC(F)(F)F)CC3)C(=O)C(C)(C)C2)cc1OC [Compound 7, 6-(3,4-Dimethoxy-phenyl)-4,4-dimethyl-2-[1-(2-trifluoromethoxy-benzenesulfonyl)-piperidin-4-yl]-4,5-dihydro-2H-pyridazin-3-one]
[1]
  IC50: 2290 pM
other
  melting point: 143 to 144 °C

## COc1ccc(C2=NN(C3CCN(C(=O)c4ccccc4OC)CC3)C(=O)C(C)(C)C2)cc1OC [Compound 8, 6-(3,4-Dimethoxy-phenyl)-2-{1-[1-(2-methoxy-phenyl)-methanoyl]-piperidin-4-yl}-4,4-dimethyl-4,5-dihydro-2H-pyridazin-3-one]
[1]
  IC50: 209 pM
other
  melting point: 157 to 159 °C

## COc1ccc(C2=NN(C3CCN(S(=O)(=O)c4cccc(C#N)c4)CC3)C(=O)C(C)(C)C2)cc1OC [Compound 9, 3-{4-[3-(3,4-Dimethoxy-phenyl)-5,5-dimethyl-6-oxo-5,6-dihydro-4H-pyridazin-1-yl]-piperidine-1-sulfonyl}-benzonitrile]
other
  melting point: 158 to 160 °C

## COc1ccc(C2=NN(C3CCN(S(=O)(=O)c4ccc(C)cc4)CC3)C(=O)C(C)(C)C2)cc1OC [Compound 10, 6-(3,4-Dimethoxy-phenyl)-4,4-dimethyl-2-[1-(toluene-4-sulfonyl)-piperidin-4-yl]-4,5-dihydro-2H-pyridazin-3-one]
other
  melting point: 161 to 164 °C

## COc1ccc(C2=NN(C3CCN(S(=O)(=O)c4cccc(C)c4)CC3)C(=O)C(C)(C)C2)cc1OC [Compound 11, 6-(3,4-Dimethoxy-phenyl)-4,4-dimethyl-2-[1-(toluene-3-sulfonyl)-piperidin-4-yl]-4,5-dihydro-2H-pyridazin-3-one]
other
  melting point: 150 to 152 °C

## COc1ccc(C2=NN(C3CCN(S(=O)(=O)N(C)C)CC3)C(=O)C(C)(C)C2)cc1OC [Compound 12, 4-[3-(3,4-Dimethoxy-phenyl)-5,5-dimethyl-6-oxo-5,6-dihydro-4H-pyridazin-1-yl]-piperidine-1-sulfonic Acid Dimethylamide]
other
  melting point: 172 to 174 °C

## COc1ccc(C2=NN(C3CCN(CC(N)=O)CC3)C(=O)C(C)(C)C2)c2c1OC(C)(C)C2 [Compound 13, 2-{4-[3-(7-Methoxy-2,2-dimethyl-2,3-dihydro-benzofuran-4-yl)-5,5-dimethyl-6-oxo-5,6-dihydro-4H-pyridazin-1-yl]-piperidin-1-yl}-acetamide]
[1]
  IC50: 417 pM
other
  melting point: 215 to 216 °C

## CCC1(CC)CC(c2ccc(OC)c(OC)c2)=NN(C2CCN(C(=O)c3ccccc3)CC2)C1=O [Compound 14, 6-(3,4-Dimethoxy-phenyl)-4,4-diethyl-2-[1-(1-phenyl-methanoyl)-piperidin-4-yl]-4,5-dihydro-2H-pyridazin-3-one]
other
  melting point: 160 to 161 °C

## CCC1(CC)CC(c2ccc(OC)c(OC)c2)=NN(C2CCN(CC(N)=O)CC2)C1=O.Cl [Compound 15, 2-{4-[3-(3,4-Dimethoxy-phenyl)-5,5-diethyl-6-oxo-5,6-dihydro-4H-pyridazin-1-yl]-piperidin-1-yl}-acetamide Hydrochloride]
[1]
  IC50: 6170 pM
other
  melting point: 69 to 74 °C

## CCC1(CC)CC(c2ccc(OC)c(OC)c2)=NN(C2CCN(S(=O)(=O)c3ccccc3C#N)CC2)C1=O [Compound 16, 2-{4-[3-(3,4-Dimethoxy-phenyl)-5,5-diethyl-6-oxo-5,6-dihydro-4-pyridazin-1-yl]-piperidin-1-sulfonyl}-benzonitrile]
[1]
  IC50: 355 pM
other
  melting point: 156 to 157 °C

## COc1ccc(C2=NN(C3CCN(C(=O)CN4C(=O)COCC4=O)CC3)C(=O)C(C)(C)C2)cc1OC [Compound 17, 4-(2-{4-[3-(3,4-Dimethoxy-phenyl)-5,5-dimethyl-6-oxo-5,6-dihydro-4H-pyridazin-1-yl]-piperidin-1-yl}-2-oxo-ethyl)-morpholine-3,5-dione]
[1]
  IC50: 646 pM
other
  melting point: 210 to 211 °C

## CCC1(CC)CC(c2ccc(OC)c(OC)c2)=NN(C2CCN(C(=O)c3ccccc3OC)CC2)C1=O [Compound 18, 6-(3,4-Dimethoxy-phenyl)-4,4-diethyl-2-{1-[1-(2-methoxy-phenyl)-methanoyl]-piperidin-4-yl}-4,5-dihydro-2H-pyridazin-3-one]
other
  melting point: 160 to 162 °C

## COc1ccc(C2=NN(C3CCN(C(=O)CN4CCN(C)CC4)CC3)C(=O)C(C)(C)C2)c2c1OC(C)(C)C2 [Compound 19, 6-(7-Methoxy-2,2-dimethyl-2,3-dihydro-benzofuran-4-yl)-4,4-dimethyl-2-{1-[2-(4-methyl-piperazin-1-yl)-ethanoyl]-piperidin-4-yl}-4,5-dihydro-2H-pyridazin-3-one]
other
  melting point: 121 to 123 °C

## COc1ccc(C2=NN(C3CCN(C(=O)CN4C(=O)CCC4=O)CC3)C(=O)C(C)(C)C2)c2c1OC(C)(C)C2 [Compound 20, 1-(2-{4-[3-(7-Methoxy-2,2-dimethyl-2,3-dihydro-benzofuran-4-yl)-5,5-dimethyl-6-oxo-5,6-dihydro-4H-pyridazin-1-yl]-piperidin-1-yl}-2-oxo-ethyl)-pyrrolidine-2,5-dione]
other
  melting point: 240 to 241 °C

## COc1ccc(C2=NN(C3CCN(C(=O)CN4C(=O)c5ccccc5C4=O)CC3)C(=O)C(C)(C)C2)cc1OC [Compound 21, 2-(2-{4-[3-(3,4-Dimethoxy-phenyl)-5,5-dimethyl-6-oxo-5,6-dihydro-4H-pyridazin-1-yl]-piperidin-1-yl}-2-oxo-ethyl)-isoindole-1,3-dione]
other
  melting point: 193 to 194 °C
